Legend:
T47D = assay: Growth inhibition of human T47D cells assessed as cell growth at 10 uM after 48 hrs by sulforhodamine B assay; type: functional; details: read-out: Activity
MDA-MB-468 = assay: Growth inhibition of human MDA-MB-468 cells assessed as cell growth at 10 uM after 48 hrs by sulforhodamine B assay; type: functional; details: MDA-MB-468, 48 h, read-out: Activity
[1] = Growth inhibition of human Hs 578T cells assessed as cell growth at 10 uM after 48 hrs by sulforhodamine B assay; type: functional; details: read-out: Activity
TK-10 = assay: Growth inhibition of human TK10 cells assessed as cell growth at 10 uM after 48 hrs by sulforhodamine B assay; type: functional; details: TK-10, 48 h, read-out: Activity
KM12 = assay: Growth inhibition of human KM12 cells after 48 hrs by sulforhodamine B assay; type: functional, cell-based; details: KM12, 48 h; for CC50: read-out: LC50 (the source's name)
HCT-116 = assay: Growth inhibition of human HCT116 cells after 48 hrs by sulforhodamine B assay; type: functional; details: HCT-116, 48 h; for CC50: read-out: LC50 (the source's name)
HCT-15 [2] = assay: Growth inhibition of human HCT15 cells after 48 hrs by sulforhodamine B assay; type: functional; details: HCT-15, 48 h
NCI-H23 = assay: Growth inhibition of human NCI-H23 cells after 48 hrs by sulforhodamine B assay; type: functional; details: NCI-H23, 48 h
SR = assay: Growth inhibition of human SR cells after 48 hrs by sulforhodamine B assay; type: functional; details: for CC50: read-out: LC50 (the source's name)
MOLT-4 [3] = assay: Growth inhibition of human MOLT4 cells after 48 hrs by sulforhodamine B assay; type: functional; details: MOLT-4, 48 h; for CC50: read-out: LC50 (the source's name)
OVCAR-3 = assay: Growth inhibition of human OVCAR3 cells assessed as cell growth at 10 uM after 48 hrs by sulforhodamine B assay; type: functional; details: OVCAR-3, 48 h, read-out: Activity
IGROV-1 = assay: Growth inhibition of human IGROV1 cells assessed as cell growth at 10 uM after 48 hrs by sulforhodamine B assay; type: functional; details: IGROV-1, 48 h, read-out: Activity
SK-MEL-5 [4] = assay: Growth inhibition of human SK-MEL-5 cells assessed as cell growth at 10 uM after 48 hrs by sulforhodamine B assay; type: functional; details: SK-MEL-5, 48 h, read-out: Activity
MDA-MB-435 = assay: Growth inhibition of human MDA-MB-435 cells assessed as cell growth at 10 uM after 48 hrs by sulforhodamine B assay; type: functional; details: MDA-MB-435, 48 h, read-out: Activity
LOX IMVI = assay: Growth inhibition of human LOXIMVI cells assessed as cell growth at 10 uM after 48 hrs by sulforhodamine B assay; type: functional; details: read-out: Activity
SF-539 = assay: Growth inhibition of human SF539 cells assessed as cell growth at 10 uM after 48 hrs by sulforhodamine B assay; type: functional; details: SF-539, 48 h, read-out: Activity
SF-268 = assay: Growth inhibition of human SF268 cells assessed as cell growth at 10 uM after 48 hrs by sulforhodamine B assay; type: functional; details: SF-268, 48 h, read-out: Activity
HCT-15 [5] = assay: Growth inhibition of human HCT15 cells assessed as cell growth at 10 uM after 48 hrs by sulforhodamine B assay; type: functional; details: HCT-15, 48 h, read-out: Activity
NCI-H460 = assay: Growth inhibition of human NCI-H460 cells assessed as cell growth at 10 uM after 48 hrs by sulforhodamine B assay; type: functional; details: NCI-H460, 48 h, read-out: Activity
NCI-H322M = assay: Growth inhibition of human NCI-H322M cells assessed as cell growth at 10 uM after 48 hrs by sulforhodamine B assay; type: functional; details: read-out: Activity
DU-145 = assay: Growth inhibition of human DU145 cells after 48 hrs by sulforhodamine B assay; type: functional; details: DU-145, 48 h
UO-31 = assay: Growth inhibition of human UO31 cells after 48 hrs by sulforhodamine B assay; type: functional; details: UO-31, 48 h; for CC50: read-out: LC50 (the source's name)
PC-3 = assay: Growth inhibition of human PC3 cells after 48 hrs by sulforhodamine B assay; type: functional, cell-based; details: PC-3, 48 h; for CC50: read-out: LC50 (the source's name)
RXF 393 = assay: Growth inhibition of human RXF393 cells after 48 hrs by sulforhodamine B assay; type: functional; details: RXF 393, 48 h
SN12C = assay: Growth inhibition of human SN12C cells after 48 hrs by sulforhodamine B assay; type: functional; details: for CC50: read-out: LC50 (the source's name)
OVCAR-5 = assay: Growth inhibition of human OVCAR5 cells after 48 hrs by sulforhodamine B assay; type: functional; details: OVCAR-5, 48 h
OVCAR-4 = assay: Growth inhibition of human OVCAR4 cells after 48 hrs by sulforhodamine B assay; type: functional; details: OVCAR-4, 48 h
SK-MEL-5 [6] = assay: Growth inhibition of human SK-MEL-5 cells after 48 hrs by sulforhodamine B assay; type: functional; details: SK-MEL-5, 48 h
UACC-257 = assay: Growth inhibition of human UACC257 cells after 48 hrs by sulforhodamine B assay; type: functional; details: UACC-257, 48 h; for CC50: read-out: LC50 (the source's name)
M14 = assay: Growth inhibition of human M14 cells after 48 hrs by sulforhodamine B assay; type: functional; details: M14, 48 h
SNB-19 = assay: Growth inhibition of human SNB19 cells after 48 hrs by sulforhodamine B assay; type: functional; details: SNB-19, 48 h
RPMI-8226 = assay: Growth inhibition of human RPMI8226 cells assessed as cell growth at 10 uM after 48 hrs by sulforhodamine B assay; type: functional; details: RPMI-8226, 48 h, read-out: Activity
MOLT-4 [7] = assay: Growth inhibition of human MOLT4 cells assessed as cell growth at 10 uM after 48 hrs by sulforhodamine B assay; type: functional; details: MOLT-4, 48 h, read-out: Activity
CCRF-CEM = assay: Growth inhibition of human CCRF-CEM cells assessed as cell growth at 10 uM after 48 hrs by sulforhodamine B assay; type: functional; details: read-out: Activity

O=C(Nc1cccc(-n2cc(-c3ccncc3)c(-c3ccc(Cl)c(O)c3)n2)c1)Nc1cc(C(F)(F)F)cc(C(F)(F)F)c1
growth at 10 µM (T47D): 12.1%
growth at 10 µM (MDA-MB-468): -23.9%
growth at 10 µM [1]: -26%
growth at 10 µM (TK-10): -24.6%
GI50 (KM12): 0.506 µM
IC50 (KM12): 0.51 µM
TGI (KM12): 1.43 µM
CC50 (KM12): 4.06 µM
GI50 (HCT-116): 0.428 µM
TGI (HCT-116): 1.11 µM
CC50 (HCT-116): 2.65 µM
GI50 (HCT-15 [2]): 0.474 µM
LC50 (HCT-15 [2]): 21.2 µM
TGI (HCT-15 [2]): 3.52 µM
GI50 (NCI-H23): 1.02 µM
LC50 (NCI-H23): 18.2 µM
TGI (NCI-H23): 3.27 µM
GI50 (SR): 0.922 µM
TGI (SR): 3.66 µM
CC50 (SR): > 50 µM
GI50 (MOLT-4 [3]): 1.15 µM
TGI (MOLT-4 [3]): 4.36 µM
CC50 (MOLT-4 [3]): > 50 µM
growth at 10 µM (OVCAR-3): -67.5%
growth at 10 µM (IGROV-1): 4.8%
growth at 10 µM (SK-MEL-5 [4]): -94.7%
growth at 10 µM (MDA-MB-435): -31.1%
growth at 10 µM (LOX IMVI): -94.1%
growth at 10 µM (SF-539): -63%
growth at 10 µM (SF-268): -36.4%
growth at 10 µM (HCT-15 [5]): -7.23%
growth at 10 µM (NCI-H460): -55.7%
growth at 10 µM (NCI-H322M): 5.11%
GI50 (DU-145): 1.25 µM
LC50 (DU-145): 17.4 µM
TGI (DU-145): 5.62 µM
GI50 (UO-31): 0.647 µM
TGI (UO-31): 1.9 µM
CC50 (UO-31): 6.6 µM
GI50 (PC-3): 0.319 µM
IC50 (PC-3): 0.32 µM
TGI (PC-3): 4.37 µM
CC50 (PC-3): > 50 µM
GI50 (RXF 393): 0.937 µM
LC50 (concentration killing 50% of cells) (RXF 393): 10.7 µM
TGI (RXF 393): 2.49 µM
GI50 (SN12C): 1.03 µM
TGI (SN12C): 5.45 µM
CC50 (SN12C): > 50 µM
GI50 (OVCAR-5): 0.875 µM
LC50 (concentration killing 50% of cells) (OVCAR-5): 4.7 µM
TGI (OVCAR-5): 2.03 µM
GI50 (OVCAR-4): 0.849 µM
LC50 (concentration killing 50% of cells) (OVCAR-4): 23.9 µM
TGI (OVCAR-4): 5.01 µM
GI50 (SK-MEL-5 [6]): 0.6 µM
LC50 (concentration killing 50% of cells) (SK-MEL-5 [6]): 2.62 µM
TGI (SK-MEL-5 [6]): 1.25 µM
GI50 (UACC-257): 0.965 µM
TGI (UACC-257): 2.55 µM
CC50 (UACC-257): 10.6 µM
GI50 (M14): 0.607 µM
LC50 (concentration killing 50% of cells) (M14): 6.06 µM
TGI (M14): 1.81 µM
GI50 (SNB-19): 0.983 µM
LC50 (concentration killing 50% of cells) (SNB-19): > 50 µM
TGI (SNB-19): 8.96 µM
growth at 10 µM (RPMI-8226): -10.9%
growth at 10 µM (MOLT-4 [7]): -18.5%
growth at 10 µM (CCRF-CEM): -16%

O=C(Nc1cccc(-n2cc(-c3ccncc3)c(-c3ccc(Cl)c(O)c3)n2)c1)Nc1ccc(Cl)c(Cl)c1
growth at 10 µM (T47D): 23%
growth at 10 µM (MDA-MB-468): 2.25%
growth at 10 µM [1]: 36.1%
growth at 10 µM (TK-10): 7.15%
GI50 (KM12): 1.01 µM
TGI (KM12): 4.47 µM
CC50 (KM12): 26.3 µM
GI50 (HCT-116): 1.19 µM
TGI (HCT-116): 5.73 µM
CC50 (HCT-116): > 32.5 µM
GI50 (HCT-15 [2]): 1.23 µM
LC50 (HCT-15 [2]): > 32.5 µM
TGI (HCT-15 [2]): 29.6 µM
GI50 (NCI-H23): 1.22 µM
LC50 (NCI-H23): > 32.5 µM
TGI (NCI-H23): 29.1 µM
GI50 (SR): 1.14 µM
TGI (SR): 15 µM
CC50 (SR): > 32.5 µM
GI50 (MOLT-4 [3]): 1.38 µM
TGI (MOLT-4 [3]): > 32.5 µM
CC50 (MOLT-4 [3]): > 32.5 µM
growth at 10 µM (OVCAR-3): -4.74%
growth at 10 µM (IGROV-1): 28.7%
growth at 10 µM (SK-MEL-5 [4]): -40.2%
growth at 10 µM (MDA-MB-435): 9.98%
growth at 10 µM (LOX IMVI): 21.9%
growth at 10 µM (SF-539): 37%
growth at 10 µM (SF-268): 29.1%
growth at 10 µM (HCT-15 [5]): 19.8%
growth at 10 µM (NCI-H460): 6.5%
growth at 10 µM (NCI-H322M): 40.6%
GI50 (DU-145): 1.5 µM
LC50 (DU-145): > 32.5 µM
TGI (DU-145): > 32.5 µM
GI50 (UO-31): 1.25 µM
TGI (UO-31): > 32.5 µM
CC50 (UO-31): > 32.5 µM
GI50 (PC-3): 0.834 µM
IC50 (PC-3): 0.83 µM
TGI (PC-3): > 32.5 µM
CC50 (PC-3): > 32.5 µM
GI50 (RXF 393): 1 µM
LC50 (concentration killing 50% of cells) (RXF 393): > 32.5 µM
TGI (RXF 393): 6.4 µM
GI50 (SN12C): 1.31 µM
TGI (SN12C): > 32.5 µM
CC50 (SN12C): > 32.5 µM
GI50 (OVCAR-5): 2.4 µM
LC50 (concentration killing 50% of cells) (OVCAR-5): > 32.5 µM
TGI (OVCAR-5): > 32.5 µM
GI50 (OVCAR-4): 1.69 µM
LC50 (concentration killing 50% of cells) (OVCAR-4): > 32.5 µM
TGI (OVCAR-4): > 32.5 µM
GI50 (SK-MEL-5 [6]): 0.57 µM
LC50 (concentration killing 50% of cells) (SK-MEL-5 [6]): 2.35 µM
TGI (SK-MEL-5 [6]): 1.16 µM
GI50 (UACC-257): 0.93 µM
TGI (UACC-257): 3.16 µM
CC50 (UACC-257): > 32.5 µM
GI50 (M14): 1.18 µM
LC50 (concentration killing 50% of cells) (M14): > 32.5 µM
TGI (M14): 6.97 µM
GI50 (SNB-19): 1.46 µM
LC50 (concentration killing 50% of cells) (SNB-19): > 32.5 µM
TGI (SNB-19): > 32.5 µM
growth at 10 µM (RPMI-8226): 7.89%
growth at 10 µM (MOLT-4 [7]): 7.64%
growth at 10 µM (CCRF-CEM): 13.7%
